In patent US20230150926A1, “CATIONIC LIPIDS FOR LIPID NANOPARTICLE DELIVERY OF THERAPEUTICS TO HEPATIC STELLATE CELLS” (GENEVANT SCIENCES GMBH, priority 2020, published 2023):

Key:
[1] = test system: reelin mRNA (RELN), a stellate cell target; experiment: Reelin (RELN) mRNA knock-down in liver after IV administration of siRNA LNP (QuantiGene, RELN:GAPD mRNA ratio); format: in vivo, Balb/C mice; conditions: for reelin mRNA knock-down, activity at high dose: 1 mg/kg dose and greater
Description: The lipid solution contained 4 components: a PEG-conjugated lipid, an ionizable lipid, cholesterol, and a phospholipid (e.g., DSPC). Lipid stocks were prepared using the lipid identities and molar ratios as described. The siRNA was diluted in 100 mM acetate, pH 4 buffer to prepare lipid nanoparticles (LNP) at a total lipid to siRNA weight ratio of approximately 10:1 to 20:1. Equal volumes of the lipid and nucleic acid solutions were blended at a flow rate of 400 mL/min through a T-connector, and diluted into PBS, pH 7.4. The ethanol was then removed and the external buffer replaced with Tris/NaCl buffer by dialysis. Following dialysis, the formulations were concentrated using VivaSpin concentrator units (MWCO 100,000) and filtered through a 0.2 µm pore sterile filter. Nucleic acid concentration was determined by the RiboGreen assay. Particle size and polydispersity were determined using a Malvern Nano Series Zetasizer.
Generally, the LNP formulations were injected intravenously at 0.025 mg/kg to female Balb/C mice (5-8 weeks old) to measure activity of the HSC-LNP. Just prior to injection, the siRNA LNP stocks were filtered and diluted down to the required dosing concentration. […] Half the left lateral lobe of the liver was collected into 1.5 mL RNALater and stored at 2-8° C. overnight. The next day, an approximately 20-25 mg piece of liver was homogenized and the liver lysate used in a QuantiGene Assay, testing for relative levels of mouse target mRNA and GAPDH expression. Data from each animal was normalized to the liver weight used in the assay, and then relative to the GAPDH signal; data is reported as the average % knockdown of each group (where the PBS control group is 100% gene expression, 0% knockdown).

[2] = Tolerability assessment: serum liver enzyme levels (ALT/AST) after IV administration of LNP; format: in vivo, Balb/C mice; conditions: FIG. 4; 24 hours following IV administration of LNP; 0.03, 1, 3 mg/kg; relative to comparator lipid
Description: Generally, the LNP formulations were injected intravenously at ~0.03 to 3 mg/kg to female Balb/C mice (5-8 weeks old) to assess tolerability of the HSC-LNP. Just prior to injection, the siRNA LNP stocks were filtered and diluted down to the required dosing concentration. At 2 h post-treatment, blood was collected via tail nicks and processed to plasma (for cytokine analysis by ELISA). At the terminal timepoint (24 h post-dose), blood was collected by cardiac puncture (target ≥ 800 µL) and sent to IDEXX for CRES 15 panel analysis (CBC/Diff & Clin Chem analysis). Briefly, blood (~300 uL) was collected into EDTA microtainer tubes, inverted 10x to mix the K2EDTA whole blood sample, and immediately stored at 4° C. to await same-day shipment to for hematology analysis. The remaining blood volume (~500 uL) was collected into serum separator tubes and inverted 5× to mix the SST sample, then allowed to clot for 1-1.5 h at room temp. The blood samples were centrifuged, and serum was collected for clinical chemistry analysis.

[3] = FIG. 3, 24 hours following IV administration of LNP

| Compound | reelin mRNA knock-down, activity at high dose [1, 3] | knock-down as indicated by the RELN:GAPD mRNA ratio ([1]; FIG. 1, 0.1 mg/kg, versus comparator lipid and PBS) | reelin mRNA knock-down, potency relative to comparator lipid ([1]; FIG. 2, 48 hours following IV administration of LNP, Balb/C mice (n=4)) | reelin mRNA knock-down, potency relative to comparator lipid ([1]; FIG. 3, 24 hours following IV administration of LNP, low dose of 0.03 mg/kg) | potency relative to comparator lipid, as restated in the tolerability figure ([1]; FIG. 4 legend, no dose stated) | liver enzyme levels (ALT/AST) in serum [2] |
| --- | --- | --- | --- | --- | --- | --- |
| CCCCC/C=C\CCCC(CCC/C=C\CCCCC)C(CCC/C=C\CCCCC)OC(=O)CCCCCN(C)C (stereo not shown) [compound 100, reference compound] | Saturating activity | – | – | – | – | – |
| CCCCC/C=C\CCCC(=O)OC(CCC/C=C\CCCCC)C(CCC/C=C\CCCCC)OC(=O)CCCCCN(C)C (stereo not shown) [representative lipid of the invention] | Saturating activity | excellent knock-down | equivalent potency to a comparator lipid at 4-fold lower dose | significantly more potent than the comparator lipid | significantly more potent | slightly higher liver enzyme levels relative to the comparator lipid |
